Assay results: US7538120B2, “Method of treating inflammatory diseases” (Array Biopharma Inc., priority 2003, dated 2009)
Entries after “also recorded” stand apart in the source; their conditions may differ.

Assays:
[1] = tested on: carrageenan paw edema in rats; assay: Carrageenan paw edema model in rats; type: in vivo, rat; conditions: for paw weight: 3, 10 and 30 mg/kg oral, 2 h before carrageenan, 4 h after injection, FIG. 11; for ED50: Rattus norvegicus, oral, single dose, read-out: ED50 (paw weight); for activity compared with indomethacin: vs indomethacin 2 mg/kg (positive control)
Protocol: The rat carrageenan paw edema model of inflammation was utilized to evaluate the effectiveness of AR-13 and AR-14 in ameliorating swelling and inflammation.
Male Lewis rats (7-9 weeks of age; 10 per group) were acclimated for at least 7 days after arrival.
Acclimated animals were randomized into groups by body weight. Animals were treated orally with AR-13 or AR-14 (3, 10 or 30 mg/kg) or with a positive control (indomethacin, 2 mg/kg). After 2 hours, the animals were anesthetized with Isoflurane and given an intradermal injection of 1.2% carrageenan into the right hind footpad. Four hours after the carrageenan injection, the animals were sacrificed with carbon dioxide inhalation and both paws were removed at the medial malleolus and weighed. The difference in weight between the right (carrageenan) and left (normal) paws was calculated.

[2] = tested on: type II collagen-induced arthritis in rats; assay: Established type II collagen-induced arthritis (CIA) in rats; type: in vivo
Protocol: Type II collagen-induced arthritis (CIA) in rats is an experimental model of arthritis that has a number of pathologic, immunologic, and genetic features in common with rheumatoid arthritis.
Female Lewis rats (7-9 weeks of age; 8 per group for arthritis, 4 per group for normal control) were acclimated for 7 days after arrival.
Acclimated animals were anesthetized with Isoflurane. The disease was induced by immunization of the rats with type II collagen (equal mixture of 4 mg/mL bovine type II collagen in 0.01 N acetic acid and Freund's incomplete adjuvant) by injection (day 0). On day 6, the rats were anesthetized again for the second collagen injection. Each animal received 300 μL of the collagen mixture on days 0 and 6, which was spread over 3 sites on the back.
Caliper measurements of normal (pre-disease) right and left ankle joints were taken on day 9 post-collagen injection. On days 10-11, onset of arthritis occurred and rats were randomized into treatment groups. Randomization into each group was done after ankle joint swelling was established in at least one hind paw.
Once enrolled in the treatment groups, treatment with once daily oral dosing of AR-14 (1, 3, 10, 30 or 60 mg/kg) or indomethacin (1 mg/kg) was initiated. Animals receiving vehicle or compound were enrolled and daily dosing was initiated using a volume of 5 mL/kg for oral solutions. ENBREL (etanercept) treatment was on days 11 and 15 (10 mg/kg) by subcutaneous administration. Rats were weighed on days 11-18 and caliper measurements of ankles were taken every day. Final body weights were taken on day 19. On day 19, animals were euthanized, both hind paws and knees were removed, hind paws were weighed and then (with knees) placed in formalin.
Following 1-2 days in fixative and then 4-5 days in decalcifier, the ankle joints and knees were processed, embedded, sectioned and stained with toluidine blue.
A clinical scoring index was used to assess disease progression. Collagen arthritic ankles and knees were given scores of 0-5 for inflammation, pannus formation and bone resorption according to the criteria in Tables 1-7.
Clinical data for ankle joint diameter were analyzed by determining the area under the dosing curve (AUC). For calculation of AUC, the daily measurements of ankle joints (using a caliper) for each rat were entered into Microsoft Excel and the area between the treatment days after the onset of disease to the termination day was computed. Means for each group were determined and percent inhibition from arthritis controls was calculated by comparing values for treated and normal animals. Data were analyzed by the Mann Whitney or Student's t test. Paw weights and histologic parameters (mean±SE) for each group were analyzed for differences using the Mann Whitney or Student's t test. In both cases, significance was set at p≦0.05.
Percent inhibition of paw weight and AUC was calculated using the following formula: % Inhibition=A−(B/A)×100
wherein A=(Mean Disease Control−Mean Normal) and B=(Mean Treated−Mean Normal).

[3] = tested on: MEK; assay: MEK inhibition in vivo (stated in summary, no method given)
[4] = tested on: adjuvant-induced arthritis in rats; assay: Adjuvant-induced arthritis (AIA) in rats; type: in vivo
Protocol: Male Lewis rats (7-9 weeks of age; 8 per group for arthritis, 4 per group for normal control) were acclimated for 7 days after arrival.
Acclimated animals were randomized into groups by body weight and then anesthetized with Isoflurane and given lipoidal amine (LA) in Freund's complete adjuvant (100 μL injection of 7 mg LA, intradermal administration at the base of the tail, Day 0).
Caliper measurements of normal (pre-disease) right and left ankle joints were taken on day 7 post-adjuvant injection. On day 8, dosing began for vehicle and AR-14 treatment groups. Methotrexate treatment (0.075 mg/kg) began on day 0 prior to adjuvant injection.
Once enrolled in the treatment group, treatment with once daily oral doses of AR-14 (1, 3, 10 or 30 mg/kg) was initiated. […] Animals receiving vehicle or compound were enrolled and daily dosing was initiated using a volume of 5 mL/kg for oral solutions on days 8-14. Rats were weighed on days 8-14 and caliper measurements of ankles were taken every day. Final body weights and caliper measurements of ankles and paws were taken on day 15. On day 15, animals were euthanized, both hind paws were removed, and the hind paws weighed and then placed in formalin for histopathologic analyses. Spleens were also removed, weighed and placed in formalin for histopathologic analyses.

[5] = tested on: indomethacin-induced IBD in rats; assay: Indomethacin-induced inflammatory bowel disease (model of Crohn's disease) in rats; type: in vivo
Protocol: This study evaluated AR-14 (PO, QD) in a model of Crohn's disease (indomethacin induced intestinal injury) in rats to determine if beneficial effects could be detected in this IBD model.
Rats received two subcutaneous administrations of indomethacin (7.5 mg/kg, in 5% NaHCO3) spaced 24 hours apart. Rats received once daily oral doses of vehicle, AR-14 (1, 3, 10 or 30 mg/kg) or dexamethasone (0.1 mg/kg). Rats were euthanized and evaluated for effects of treatment at day 4 post-initial indomethacin injection. Body weights were taken as well as intestinal weights per 10 cm of area at risk.
A clinical scoring index (Table 8) was used to assess disease progression. Intestines were scored for gross lesions and multiple sections of gut taken for histology (5 sections per rat spaced equally along area at risk).
Five equally spaced sections from area at risk were scored for necrosis and inflammation (0,0) (1,3) etc., according to the criteria in Tables 9 and 10.

[6] = 10 and 30 mg/kg vs dexamethasone 0.1 mg/kg

O=C(NOCCO)c1cn2ccnc2c(Cl)c1Nc1ccc(Br)cc1F [AR-13, 7-(4-bromo-2-fluorophenylamino)-8-chloroimidazo[1,2-a]pyridine-6-carboxylic acid (2-hydroxyethoxy)-amide] was tested, and the paw weight [1] was “significantly inhibit”, the ED50 [1] was ~10 mg/kg and the “activity compared with indomethacin” value [1] was “superior to the positive control indomethacin”.
O=C(NOCCO)c1cn2ccnc2c(Cl)c1Nc1ccc(Br)cc1Cl [AR-14, 7-(4-bromo-2-chlorophenylamino)-8-chloroimidazo[1,2-a]pyridine-6-carboxylic acid (2-hydroxyethoxy)-amide] was tested, and the “progression of established disease (arthritis)” value ([2]; 10 mg/kg once daily oral) was “stopped the progression; also recorded: significantly inhibited”, the “ankle histopathology (joints)” value ([2]; 10 mg/kg, after 7 days) was “Near normal joints with minimal inflammation” and the “established disease, improvement” value ([2]; 60 mg/kg once daily oral) was “improvement to normal”. The “pannus formation, cartilage damage and bone resorption (ankle histopathology)” value ([2]; 1 and 3 mg/kg, after 7 days, FIG. 3) was “significantly inhibited”, the “ankle histopathology compared with indomethacin or ENBREL” value ([2]; AR-14 10 mg/kg) was “significantly better than indomethacin or ENBREL” and the “activity on ankle diameter compared with ENBREL (etanercept)” value ([2]; AR-14 10 mg/kg vs ENBREL 10 mg/kg s.c.) was “better than that of ENBREL”. The “activity on ankle diameter compared with indomethacin” value ([2]; AR-14 10 mg/kg vs indomethacin 1 mg/kg) was “equivalent to indomethacin”, the ED50 ([2]; Rattus norvegicus, 168 h, after 7 days, once daily oral, read-out: ED50 (inhibition of body weight loss)) was 4.57 mg/kg and the tolerability ([2]; all doses administered (1, 3, 10, 30, 60 mg/kg, once daily oral)) was “well tolerated”. The “ankle swelling (ankle/paw diameter) compared to vehicle control” value ([2]; all doses tested (1-60 mg/kg), over 7 days, FIG. 1) was “significantly inhibited”, the body weight loss ([2]; all doses tested, after 7 days, FIG. 2) was “significantly inhibited” and the joint destruction ([2]; dose of 1 mg/kg, 1 mg/kg) was “significantly inhibited; also recorded: significant inhibition”. The body weight ([2]; doses of 30 and 60 mg/kg, after 7 days) was “near normal body weights”, the “acute gross and microscopic inflammation” value ([2]; once daily oral 10 mg/kg) was “reversal” and the paw weight [1] was “significantly inhibit”. The ED50 [1] was ~4 mg/kg, the “activity compared with indomethacin” value [1] was “superior to the positive control indomethacin” and the “selectivity for MEK in vivo” value [3] was “selective inhibitor of MEK in vivo”. The “progression of established disease” value ([4]; 30 mg/kg) was “stopped the progression of established disease and causes improvement to normal”, the body weight loss ([4]; 30 mg/kg, after 15 days, FIG. 5) was “significantly inhibited” and the “joints (paw weight study)” value ([4]; 30 mg/kg, after 15 days, comparable to methotrexate) was “Near normal joints with minimal inflammation”. The “splenomegaly (relative spleen weight)” value ([4]; 3, 10 and 30 mg/kg, after 15 days, FIG. 7) was “significantly inhibited”, the “inhibition of splenomegaly compared with methotrexate” value ([4]; 10 and 30 mg/kg) was “comparable to that seen with methotrexate” and the “activity compared with methotrexate” value ([4]; AR-14 30 mg/kg vs methotrexate 0.075 mg/kg) was “equivalent to methotrexate”. For the same compound, the tolerability ([4]; all doses administered (1, 3, 10, 30 mg/kg, once daily oral)) was “well tolerated”, the “ankle swelling (paw diameter) compared to vehicle control” value ([4]; all doses tested, over 15 days, FIG. 4) was “significantly inhibited” and the “paw weight gain (edema/inflammation) compared to vehicle control” value ([4]; all doses, after 15 days, FIG. 6) was “significantly inhibited”. For the same compound, the “acute gross and microscopic inflammation” value ([4]; once daily oral 30 mg/kg) was “reversal”, the “histopathology of the gut (necrosis and inflammation scored) compared with dexamethasone” value ([5]; 30 mg/kg, FIG. 10) was “significantly more efficacious than dexamethasone” and the “small intestine weight gain as a result of edema/inflammation” value ([5]; 3, 10 and 30 mg/kg, after 4 days, FIG. 9) was “significantly inhibited”. For the same compound, the “inhibition of gross lesion score compared with dexamethasone” value [5, 6] was “significantly better than dexamethasone”, the “inhibition of intestinal inflammation and edema, small intestine necrosis and inflammation compared with dexamethasone” value [5, 6] was “significantly better than dexamethasone” and the “gross lesion score (small intestine)” value ([5]; all doses (1, 3, 10, 30 mg/kg), after 4 days, FIG. 8) was “significantly inhibited”. The tolerability ([5]; all doses administered) was “well tolerated” and the “inhibition of disease (gut score and weight and microscopic changes)” value ([5]; once daily dosing at 10 mg/kg) was “significant inhibition”.
